{"source": "patent US12433670B2", "about": "“Systems and methods for treating cancer and/or augmenting organ function” (Autonomix Medical, Inc., priority 2013, dated 2025)", "key": {"[1]": {"tested_on": "Mia PaCa2 human pancreatic cancer cells", "description": "The following non-limiting example is directed at the treatment of neurogenic pathways for tumor growth and metastasis of pancreatic ductal adenocarcinoma (PDAC). A control experiment was performed with 10 athymic nude mice. The 10 mice were surgically prepared under anesthesia, and the surgical site was cleaned with 75% ethanol solution. A dorsal incision was used to access the spleen, pancreas and associated arterial supply. Mia PaCa2 human pancreatic cancer cells were seeded into the pancreas of each mouse. In 5 of the mice, the celiac ganglion and surrounding nerves were ablated with ethanol. The surgical procedures were completed and the mice were returned to Plexiglass boxes for observation.\nThe animals were monitored for detectable sickness related behavior and tumor growth was monitored via in vivo bioluminescent imaging techniques (IVIS® imaging system). Animals were monitored for relative changes in the following criteria: detectable sickness-related behavior, hunching and postural changes, signs of tumor growth in the animals' back (visible lumps), increases in piloerection, changes in skin tone and character, and changes in voluntary movement levels and exploratory behavior."}, "[2]": {"conditions": "7 weeks; EtOH group vs control group", "description": "(§1) The following, non-limiting example, is directed to treatment of cancer (e.g., pancreatic cancer), internal pain or neural mediated hyperplasia in organs (e.g., benign prostatic hyperplasia). Pancreatic carcinoma cells (Mia PaCa2) were injected into the head of the pancreas of 10 athymic nude mice (subjects). A bolus of ethanol (50-75 uL) was administered to the celiac ganglion and surrounding nerves of five of the mice (i.e., the EtOH ablation group). The remaining five subjects constitute the untreated control group.\nThe experiment was terminated at 7 weeks.\n(§2) The metastases per group were assessed during necropsy."}, "[3]": {"tested_on": "Pancreatic carcinoma cells (Mia PaCa2)", "description": "as §1\nThe mice were tracked for 7 weeks post procedure. Tumor growth rates in all subjects were monitored via bioluminescent imaging with an in vivo imaging system, i.e., IVIS Spectrum (Xenogen), twice weekly during the experiment.\nas §2"}, "[4]": {"conditions": "necropsy at 7 weeks, affected/total mice"}}}
{"compound": "CCO", "note": "[EtOH, ethanol]", "values": [{"measurement": "skin tone and movement versus the control mice", "setting": "[1]; 2 weeks post-surgery, celiac ganglion and surrounding nerves ablated with ethanol, n=5", "value": "improved skin tone and movement"}, {"measurement": "average tumor size relative to the average tumor size in the control group (IVIS luciferase ROI imaging)", "setting": "[1]; 3 weeks, experimental group vs control group", "value": 55, "unit": "%"}, {"measurement": "overall size difference between subjects in the groups (FIG. 11c)", "setting": "[2]", "value": "no overall size difference"}, {"measurement": "median tumor size relative to the control group median tumor size", "setting": "[3]; 3 weeks", "value": "less than 1%"}, {"measurement": "tumor growth rate compared with the control arm (FIG. 11a)", "setting": "[3]; 3 weeks post procedure, median subject of each group, ethanol 50-75 uL", "value": "substantially decreased"}, {"measurement": "difference in bioluminescence between the median responders", "setting": "[3]; 3 weeks post procedure, treatment arm vs control arm", "value": "~100", "unit": "×"}, {"measurement": "mean tumor size relative to the control group", "setting": "[3]; 3 weeks, 1-sided, alpha=0.05, n=5, p=0.11", "value": "half"}, {"measurement": "Occurrence of metastases by group: Liver", "setting": "[3]; [4]", "value": "0/5"}, {"measurement": "Occurrence of metastases by group: Local invasion", "setting": "[3]; [4]", "value": "2/5"}, {"measurement": "Occurrence of metastases by group: Stomach", "setting": "[3]; [4]", "value": "0/5"}, {"measurement": "Occurrence of metastases by group: Spleen", "setting": "[3]; necropsy at 7 weeks, affected/total mice, nerves from pancreas to spleen not treated", "value": "4/5"}, {"measurement": "incidence of metastases versus the untreated control group", "setting": "[3]; necropsy at 7 weeks, including non-responder sub-group", "value": "considerably lower"}, {"measurement": "tumor mass versus subjects of the control group", "setting": "[3]; subjects with ablated peri-pancreatic nerves, overall", "value": "less tumor mass"}]}
